Assay results taken from ChEMBL document CHEMBL3217528, “Bicyclic imidazole-4-one derivatives: a new class of antagonists for the orphan G protein-coupled receptors GPR18 and GPR55” (Medchemcomm, 2014).
Active and inactive are the calls of the source. The calls are words filed in the database; no cut-off is given here.

Legend:
[1] = target: T1, Cannabinoid receptor 1 (Homo sapiens, UniProt P21554); assay: Intrinsic activity at human recombinant CB1 receptor expressed in HEK293 cell membranes assessed as stimulation of [35S]GTPgammaS binding at 10 uM by liquid scintillation counting method relative to CP55,940; assay type: functional
[2] = target: Cannabinoid receptor 1 (Rattus norvegicus) (UniProt P20272); assay: Intrinsic activity at CB1 receptor in rat brain cortical membranes assessed as stimulation of [35S]GTPgammaS binding at 10 uM by liquid scintillation counting method relative to CP55,940; assay type: functional, cell membranes
[3] = target: T2, G-protein coupled receptor 55 (Homo sapiens, UniProt Q9Y2T6); assay: Agonist activity at human GPR55 expressed in CHO cells assessed as induction of LPI-induced beta-arrestin recruitment by beta-galactosidase enzyme fragment complementation method relative to LPI; assay type: cell-based; parameters: concentration or dose not given beside the values
[4] = target: T3, N-arachidonyl glycine receptor (Homo sapiens) (UniProt Q14330); assay: Agonist activity at human GPR18 expressed in CHO cells assessed as induction of beta-arrestin recruitment by beta-galactosidase enzyme fragment complementation method relative to delta9-THC; assay type: cell-based; parameters: concentration or dose not given beside the values
T3 sequence (whole entry): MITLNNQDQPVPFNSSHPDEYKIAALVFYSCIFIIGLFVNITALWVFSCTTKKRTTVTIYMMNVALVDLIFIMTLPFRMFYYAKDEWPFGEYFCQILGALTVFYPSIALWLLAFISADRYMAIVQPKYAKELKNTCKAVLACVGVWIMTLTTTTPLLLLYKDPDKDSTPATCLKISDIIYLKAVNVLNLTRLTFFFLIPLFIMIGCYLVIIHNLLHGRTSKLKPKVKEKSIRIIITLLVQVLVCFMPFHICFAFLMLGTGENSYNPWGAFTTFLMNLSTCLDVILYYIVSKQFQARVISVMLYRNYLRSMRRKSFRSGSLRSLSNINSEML

[5] = Displacement of [3H]diazepam from GABAA receptor in rat brain cortical membranes; assay type: cell membranes
[6] = target: Cannabinoid receptor 1 (Rattus norvegicus, UniProt P20272); assay: Displacement of [3H]CP55,940 from CB1 receptor in rat brain cortical membranes; assay type: cell membranes
[7] = target: T4, Cannabinoid receptor 2 (Homo sapiens, UniProt P34972); assay: Agonist activity at human recombinant CB2 receptor expressed in CHO-K1 cell membranes assessed effect on forskolin-induced cAMP accumulation at 10 uM; assay type: functional, cell-based
[8] = target: T1, Cannabinoid receptor 1; assay: Agonist activity at human recombinant CB1 receptor expressed in CHO-K1 cell membranes assessed effect on forskolin-induced cAMP accumulation at 10 uM; assay type: functional, cell-based
[9] = target: T4, Cannabinoid receptor 2; assay: Displacement of [3H]CP55,940 from human recombinant CB2 receptor expressed in HEK293 cells; assay type: cell-based
[10] = target: T1, Cannabinoid receptor 1; assay: Displacement of [3H]CP55,940 from human recombinant CB1 receptor expressed in CHO-K1 cells; assay type: cell-based
[11] = target: T2, G-protein coupled receptor 55; assay: Antagonist activity against human GPR55 expressed in CHO cells assessed as reduction in LPI-induced beta-arrestin recruitment at 10 uM by beta-galactosidase enzyme fragment complementation method; assay type: cell-based
[12] = target: T2, G-protein coupled receptor 55; assay: Antagonist activity against human GPR55 expressed in CHO cells assessed as reduction in LPI-induced beta-arrestin recruitment by beta-galactosidase enzyme fragment complementation method; assay type: cell-based
[13] = target: T5, N-arachidonyl glycine receptor (Homo sapiens, UniProt Q14330); assay: Antagonist activity against human GPR18 expressed in CHO cells assessed as reduction in delta9-THC-induced beta-arrestin recruitment by beta-galactosidase enzyme fragment complementation method; assay type: cell-based
T5 sequence (Q14330 whole entry): T3 sequence (whole entry)

[14] = target: T2, G-protein coupled receptor 55; assay: Agonist activity at human GPR55 expressed in CHO cells assessed as induction of LPI-induced beta-arrestin recruitment by beta-galactosidase enzyme fragment complementation method; assay type: cell-based
[15] = target: T4, Cannabinoid receptor 2; assay: Displacement of [3H]CP55,940 from human recombinant CB2 receptor expressed in HEK293 cells at 10 uM; assay type: cell-based
[16] = target: T1, Cannabinoid receptor 1; assay: Displacement of [3H]CP55,940 from human recombinant CB1 receptor expressed in CHO-K1 cells at 10 uM; assay type: cell-based
[17] = target: T3, N-arachidonyl glycine receptor (Homo sapiens); assay: Antagonist activity against human GPR18 expressed in CHO cells assessed as reduction in delta9-THC-induced beta-arrestin recruitment at 10 uM by beta-galactosidase enzyme fragment complementation method; assay type: cell-based
[18] = target: T6, G-protein coupled receptor 35 (Homo sapiens, UniProt Q9HC97); assay: Antagonist activity at human GPR35 assessed as reduction of zaprinast-induced beta-arrestin recruitment by beta-galactosidase enzyme fragment complementation method relative to untreated control; parameters: concentration or dose not given beside the values; conditions: concentration not given here
[19] = target: T6, G-protein coupled receptor 35; assay: Antagonist activity at human GPR35 assessed as reduction of zaprinast-induced beta-arrestin recruitment by beta-galactosidase enzyme fragment complementation method
[20] = target: T6, G-protein coupled receptor 35; assay: Agonist activity at human GPR35 assessed as induction of beta-arrestin recruitment by beta-galactosidase enzyme fragment complementation method relative to zaprinast; parameters: concentration or dose not given beside the values
[21] = target: T6, G-protein coupled receptor 35; assay: Agonist activity at human GPR35 assessed as induction of beta-arrestin recruitment by beta-galactosidase enzyme fragment complementation method
[22] = target: Cannabinoid receptor 1 (Rattus norvegicus) (UniProt P20272); assay: Displacement of [3H]CP55,940 from CB1 receptor in rat brain cortical membranes at 10 uM; assay type: cell membranes
[23] = target: T2, G-protein coupled receptor 55; assay: Allosteric antagonist activity against human GPR55 expressed in CHO cells assessed as induction of rightward shift of concentration response curve of LPI-induced beta-arrestin recruitment at 10 uM by beta-galactosidase enzyme fragment complementation method; assay type: cell-based
[24] = species: Rattus norvegicus; assay: Displacement of [3H]diazepam from GABAA receptor in rat brain cortical membranes at 10 uM; assay type: cell membranes
[25] = target: T2, G-protein coupled receptor 55; assay: Inverse agonist activity against human GPR55 expressed in CHO cells assessed as reduction in LPI-induced beta-arrestin recruitment at 30 uM by beta-galactosidase enzyme fragment complementation method; assay type: cell-based
[26] = target: T2, G-protein coupled receptor 55; assay: Agonist activity at human GPR55 expressed in HEK293 cells assessed as increase in oscillation Ca2+ transients by fura-2 dye based fluorescence analysis; assay type: functional, cell-based
[27] = target: T5, N-arachidonyl glycine receptor; assay: Agonist activity at human GPR18 expressed in CHO cells assessed as induction of beta-arrestin recruitment by beta-galactosidase enzyme fragment complementation method; assay type: cell-based
[28] = target: T4, Cannabinoid receptor 2; assay: Intrinsic activity at human recombinant CB2 receptor expressed in HEK293 cell membranes assessed as stimulation of [35S]GTPgammaS binding at 10 uM by liquid scintillation counting method relative to CP55,940; assay type: functional
[29] = target: T2, G-protein coupled receptor 55; assay: Inverse agonist activity against human GPR55 expressed in CHO cells assessed as reduction in LPI-induced beta-arrestin recruitment at 10 uM by beta-galactosidase enzyme fragment complementation method; assay type: cell-based
[30] = target: T5, N-arachidonyl glycine receptor; assay: Agonist activity at human GPR18 expressed in […] cells by MAP kinase assay; assay type: cell-based

Chain of Cannabinoid receptor 1 (Rattus norvegicus) (P20272 whole entry, the tested form may be a part): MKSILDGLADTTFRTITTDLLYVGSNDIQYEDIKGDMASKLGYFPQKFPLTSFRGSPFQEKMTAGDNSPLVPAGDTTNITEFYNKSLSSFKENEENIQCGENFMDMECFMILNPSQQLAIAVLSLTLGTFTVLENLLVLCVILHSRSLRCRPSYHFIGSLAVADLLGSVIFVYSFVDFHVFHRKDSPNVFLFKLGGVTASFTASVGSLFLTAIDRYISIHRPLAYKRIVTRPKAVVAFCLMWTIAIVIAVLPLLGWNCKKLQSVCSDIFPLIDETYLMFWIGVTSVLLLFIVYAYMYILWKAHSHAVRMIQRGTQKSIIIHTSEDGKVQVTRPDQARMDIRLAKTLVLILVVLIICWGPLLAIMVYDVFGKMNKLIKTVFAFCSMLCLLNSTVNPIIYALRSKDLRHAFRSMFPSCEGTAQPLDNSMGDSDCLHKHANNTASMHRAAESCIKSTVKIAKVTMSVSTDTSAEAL
Chain of Cannabinoid receptor 1 (Rattus norvegicus, UniProt P20272) (P20272 whole entry): as the sequence (P20272 whole entry, the tested form may be a part) above
T4 sequence (P34972 whole entry): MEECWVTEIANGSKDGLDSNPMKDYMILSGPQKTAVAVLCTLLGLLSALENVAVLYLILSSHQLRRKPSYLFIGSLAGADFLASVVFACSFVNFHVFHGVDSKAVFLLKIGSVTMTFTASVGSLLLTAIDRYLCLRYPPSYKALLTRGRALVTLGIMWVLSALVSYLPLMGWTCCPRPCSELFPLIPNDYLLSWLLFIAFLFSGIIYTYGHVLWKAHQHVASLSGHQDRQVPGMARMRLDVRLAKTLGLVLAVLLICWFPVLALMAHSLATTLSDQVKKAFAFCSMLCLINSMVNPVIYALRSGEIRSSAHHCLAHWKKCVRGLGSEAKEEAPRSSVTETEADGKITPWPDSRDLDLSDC
T1 sequence (P21554 whole entry): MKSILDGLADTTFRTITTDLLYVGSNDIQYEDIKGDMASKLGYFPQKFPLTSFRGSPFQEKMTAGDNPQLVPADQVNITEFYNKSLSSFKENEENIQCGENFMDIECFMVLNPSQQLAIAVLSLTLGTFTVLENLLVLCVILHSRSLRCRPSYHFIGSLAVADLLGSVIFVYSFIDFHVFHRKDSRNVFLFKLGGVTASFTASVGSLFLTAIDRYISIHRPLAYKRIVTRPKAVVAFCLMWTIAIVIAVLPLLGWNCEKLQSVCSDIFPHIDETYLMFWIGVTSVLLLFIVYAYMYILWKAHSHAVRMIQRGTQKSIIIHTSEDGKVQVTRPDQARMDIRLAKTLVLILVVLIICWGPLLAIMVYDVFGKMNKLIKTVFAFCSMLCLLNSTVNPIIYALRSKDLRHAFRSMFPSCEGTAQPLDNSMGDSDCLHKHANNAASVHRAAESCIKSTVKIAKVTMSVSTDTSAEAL
T6 sequence (Q9HC97 whole entry, the tested form may be a part): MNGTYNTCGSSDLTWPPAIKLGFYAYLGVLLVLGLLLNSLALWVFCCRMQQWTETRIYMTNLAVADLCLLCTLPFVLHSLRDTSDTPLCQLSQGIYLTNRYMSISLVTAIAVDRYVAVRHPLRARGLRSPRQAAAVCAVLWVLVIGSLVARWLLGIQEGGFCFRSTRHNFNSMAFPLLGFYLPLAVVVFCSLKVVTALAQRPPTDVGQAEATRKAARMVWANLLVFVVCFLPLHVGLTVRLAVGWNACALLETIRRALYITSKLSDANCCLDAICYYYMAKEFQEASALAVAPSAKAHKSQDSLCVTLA
T2 sequence (Q9Y2T6 whole entry, the tested form may be a part): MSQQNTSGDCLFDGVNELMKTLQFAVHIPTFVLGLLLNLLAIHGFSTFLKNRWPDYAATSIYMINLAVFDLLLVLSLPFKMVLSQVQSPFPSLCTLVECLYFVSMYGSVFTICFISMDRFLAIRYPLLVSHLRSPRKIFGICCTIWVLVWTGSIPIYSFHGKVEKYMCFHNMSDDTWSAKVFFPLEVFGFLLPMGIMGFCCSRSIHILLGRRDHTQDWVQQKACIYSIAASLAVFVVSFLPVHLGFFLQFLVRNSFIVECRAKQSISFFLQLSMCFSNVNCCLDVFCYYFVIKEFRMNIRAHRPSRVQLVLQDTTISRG

Compound | Activity [3] [%] | Activity [4] [%] | Ki [5] [µM] | Ki [6] [µM] | Activity [8] | Ki [9] [µM] | Ki [10] [µM] | IC50 [12] [µM] | IC50 [13] [µM] | EC50 [14] [µM] | inhibition [15] [%] | inhibition [16] [%] | inhibition [17] [%] | Allosteric antagonist activity [23] | further results
O=C1/C(=C/c2cccc(OCc3ccc(Cl)cc3Cl)c2)N=C2SCCCN12 | 12 | 0 | > 10 | 0.55 | inactive | 0.95 | 2.09 | > 10 | 2.55 | – | – | – | – | – | Intrinsic activity [1]: -51%; Intrinsic activity [2]: -10%; Activity [7]: inactive; inhibition [11]: 0%
CCCCC/C=C\C/C=C\C/C=C\C/C=C\CCCC(=O)O[C@H](CO)COP(=O)(O)O[C@@H]1[C@@H](O)[C@H](O)[C@@H](O)[C@H](O)[C@@H]1O | – | – | – | – | – | > 10 | > 10 | – | > 10 | 1 | 0 | 0 | 15 | – | –
O=C1/C(=C/c2ccccc2Cl)N=C2SCCCN12 | 27 | 20 | 4.15 | > 10 | – | > 10 | > 10 | 5.09 | > 10 | – | 21 | 0 | 6 | Active | inhibition [18]: 49%; IC50 [19]: ≥ 10 µM; Activity [20]: -22%; EC50 [21]: > 10 µM; inhibition [22]: 5%
O=C1/C(=C/c2ccc(F)cc2F)N=C2SCCCN12 | 0 | 11 | > 10 | – | – | > 10 | > 10 | 3.46 | > 10 | – | 0 | 13 | 6 | Active | inhibition [24]: 34%; inhibition [25]: Active
Cc1c(C(=O)NN2CCCCC2)nn(-c2ccc(Cl)cc2Cl)c1-c1ccc(I)cc1 | – | – | – | – | – | – | – | – | – | – | – | – | – | – | EC50 [26]: 0.63 µM
CCCCCCC(C)(C)c1ccc([C@@H]2C[C@H](O)CC[C@H]2CCCO)c(O)c1 [CP-55940] | – | – | – | – | Active | – | – | – | – | 1.61 | – | – | – | – | Activity [7]: Active; EC50 [27]: 5.99 µM
O=C1/C(=C/c2cccc(Cl)c2)N=C2SCCCN12 | 9 | 0 | 10 | > 10 | – | > 10 | > 10 | ≥ 10 | > 10 | – | 2 | 30 | 14 | – | inhibition [24]: 57%; inhibition [22]: 6%; inhibition [11]: 42%
O=C1/C(=C/c2cccc(OCc3ccc(Cl)cc3)c2)N=C2SCCCCN12 | 70 | 0 | > 10 | 0.82 | inactive | 4.15 | 0.25 | – | > 10 | 10.7 | – | – | 31 | – | Intrinsic activity [28]: -59%; Intrinsic activity [1]: -40%; Intrinsic activity [2]: -15%; inhibition [18]: 1%; IC50 [19]: > 10 µM; Activity [20]: 6%; EC50 [21]: > 10 µM
Cc1c(C(=O)NN2CCCCC2)nn(-c2ccc(Cl)cc2Cl)c1-c1ccc(Cl)cc1 [RIMONABANT] | – | – | – | – | – | – | – | – | – | – | – | – | – | – | EC50 [27]: 10.1 µM
O=C1/C(=C/c2cccc(Cl)c2Cl)N=C2SCCCN12 | 3 | 17 | – | > 10 | – | > 10 | > 10 | 6.91 | > 10 | – | 40 | 12 | 0 | Active | inhibition [22]: 6%
O=C1/C(=C/c2cccc(F)c2F)N=C2SCCCN12 | 0 | 4 | > 10 | – | – | > 10 | > 10 | 3.15 | > 10 | – | 0 | 7 | 3 | Active | inhibition [24]: 24%; inhibition [18]: 17%; IC50 [19]: > 10 µM; Activity [20]: -4%; EC50 [21]: > 10 µM; inhibition [29]: Active
Cc1c(C(=O)NN2CCOCC2)nn(-c2ccc(Cl)cc2Cl)c1-c1ccc(I)cc1 | – | – | – | – | inactive | – | – | – | – | – | – | – | – | – | Intrinsic activity [1]: -80%; Intrinsic activity [2]: -42%; Activity [7]: inactive; EC50 [26]: 13.6 µM
CCCCCc1cc(O)c2c(c1)OC(C)(C)[C@@H]1CCC(C)=C[C@@H]21 [DRONABINOL] | – | – | – | – | – | – | – | – | – | 14.2 | – | – | – | – | EC50 [30]: 0.96 µM
